For seven compounds, response rating results are on record in US4383113A, “Agricultural sulfonamides” (E. I. Du Pont de Nemours and Company, priority 1981, dated 1983).

Holding throughout (test): Test A post-emergence
What all share (set-up): key: 0 = no effect, 10 = maximum effect; letter = response symbol

One assay deals with bush bean. In kind it is in vivo, bush beans. The settings on record: 0.4 kg/ha.
The next assay relates to cassia. In kind it is in vivo, Cassia tora. The procedure, abridged:
(§1)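 Seeds and tubers were treated preemergence in a growth medium with compound in a nonphytotoxic solvent, against untreated controls; emerged plants such as two-leaf barnyardgrass and five-leaf cotton were sprayed postemergence, against solvent-sprayed controls. After sixteen days in a greenhouse, response was rated visually from 0 to 10.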

A further assay concerns crabgrass. In kind it is in vivo, Digitaria spp. The conditions noted are these: 0.4 kg/ha. The procedure, abridged:
as §1

For another assay, the system named is cocklebur. It counts as in vivo, Xanthium spp. The method, boiled down:
as §1

In another assay the test system is morningglory. It counts as in vivo, Ipomoea spp. The procedure, abridged: as §1
Another assay deals with nutsedge. In kind it is in vivo, Cyperus rotundus. The procedure, abridged: as §1
The next assay deals with cotton. It counts as in vivo. The procedure, abridged: as §1
For the next assay, the system named is rice. It counts as in vivo. The procedure, abridged:
as §1

For another assay, the system named is wheat. In kind it is in vivo. The method, boiled down: as §1
Another assay relates to wild oats. In kind it is in vivo, Avena fatua. The method, boiled down: as §1
The subject of a further assay is barnyardgrass. It counts as in vivo, Echinochloa crusgalli. The method, boiled down: as §1
The test system of another assay is sorghum. In kind it is in vivo. The method, boiled down:
as §1

In the next assay the test system is corn. In kind it is in vivo. The method, boiled down: as §1

The structures appear in SMILES notation.

Turning to `COc1nc(NC(=O)NS(=O)(=O)c2ccccc2C(=O)OCCCl)nc(OC)n1` [drawing 422], the response rating with bush bean was 9C; in the assay with cassia (0.4 kg/ha), 10C; in the assay on crabgrass, 2C; in the assay with cocklebur (0.4 kg/ha), 10C; in the assay with morningglory (0.4 kg/ha), 10C; in the assay with nutsedge (0.4 kg/ha), 10C. For the same compound, the response rating was found to be 9C in the assay with cotton (0.4 kg/ha), 6G in the assay on rice (0.4 kg/ha) and 1C in the assay with wheat (0.4 kg/ha).
For the compound `COc1cc(OC)nc(NC(=O)NS(=O)(=O)c2ccccc2C(=O)OC(C)C)n1` [drawing 436], the response rating in the assay with wild oats (0.4 kg/ha) is reported as 6C; with barnyardgrass (0.4 kg/ha), 9C; in the assay with cassia (0.4 kg/ha) it was 9C; in the assay on crabgrass it was 6C; in the assay with cocklebur (0.4 kg/ha), 10C; in the assay with morningglory (0.4 kg/ha), 10C. The response rating was found to be 9C in the assay on nutsedge (0.4 kg/ha), 9C in the assay with cotton (0.4 kg/ha), 7C in the assay with rice (0.4 kg/ha) and 9C with sorghum (0.4 kg/ha).
Regarding `COc1cc(C)nc(NC(=O)NS(=O)(=O)c2ccccc2C(=O)OC(C)C)n1` [drawing 437], the response rating stood at 10C in the assay on barnyardgrass (0.4 kg/ha); 9C with cassia (0.4 kg/ha); 10C with cocklebur (0.4 kg/ha); 9C in the assay with morningglory (0.4 kg/ha); 9C in the assay on nutsedge (0.4 kg/ha); 9C in the assay on corn (0.4 kg/ha). Moreover, the response rating in the assay with cotton (0.4 kg/ha) is 10C; in the assay with rice (0.4 kg/ha) it was 8C; with sorghum (0.4 kg/ha) it was 10C.
As to `COc1nc(NC(=O)NS(=O)(=O)c2ccccc2C(=O)OC(C)C)nc(OC)n1` [drawing 438], the response rating with wild oats (0.4 kg/ha) is 2C; in the assay with barnyardgrass (0.4 kg/ha), 8C; in the assay on cassia (0.4 kg/ha), 9C; in the assay on crabgrass, 6G; with cocklebur (0.4 kg/ha), 10C; in the assay with morningglory (0.4 kg/ha), 10C. Further, the response rating in the assay on nutsedge (0.4 kg/ha) is on record as 9C; with cotton (0.4 kg/ha), 9C; in the assay with rice (0.4 kg/ha), 8C; with wheat (0.4 kg/ha), 2C.
For the compound `CCCCOC(=O)c1ccccc1S(=O)(=O)NC(=O)Nc1nc(OC)cc(OC)n1` [drawing 439], the response rating in the assay with wild oats (2 kg/ha) is given as 9C; in the assay with barnyardgrass (0.4 kg/ha), 9C; with barnyardgrass (2 kg/ha), 10C; in the assay with cassia (2 kg/ha), 9C; in the assay with cocklebur (0.4 kg/ha), 9C; with cocklebur (2 kg/ha), 9C. Also, the response rating in the assay on morningglory (0.4 kg/ha) worked out at 9C; with morningglory (2 kg/ha), 10C; in the assay with nutsedge (2 kg/ha), 9C; in the assay on corn (2 kg/ha), 9C; with cotton (2 kg/ha), 9C; in the assay with rice (2 kg/ha), 9C. The response rating with sorghum (2 kg/ha) and in the assay with wheat (2 kg/ha) was 9C each time.
`CCOC(=O)c1ccccc1S(=O)(=O)NC(=O)Nc1nc(OC)cc(OC)n1` [drawing 442]: the response rating stood at 9C in the assay with wild oats (0.4 kg/ha); 10C with barnyardgrass (0.4 kg/ha); 9C in the assay on cassia (0.4 kg/ha); 9C with cocklebur (0.4 kg/ha); 10C in the assay on morningglory (0.4 kg/ha); 9C in the assay with nutsedge (0.4 kg/ha). Further, the response rating in the assay on corn (0.4 kg/ha), with cotton (0.4 kg/ha), in the assay on rice (0.4 kg/ha), in the assay on sorghum (0.4 kg/ha) and with wheat (0.4 kg/ha) was 9C in each case.
For `COc1cc(C)nc(NC(=O)NS(=O)(=O)c2ccccc2C(=O)SC2CCCCC2)n1` [drawing 476], the response rating in the assay on bush bean was 9C; with wild oats (0.4 kg/ha), 9C; in the assay on barnyardgrass (0.4 kg/ha), 9C; in the assay on cassia (0.4 kg/ha), 9C; with cocklebur (0.4 kg/ha), 9C; in the assay on morningglory (0.4 kg/ha), 10C. Besides, the response rating in the assay with nutsedge (0.4 kg/ha) is listed as 10C; in the assay on cotton (0.4 kg/ha), 9C; with rice (0.4 kg/ha), 9C; in the assay with sorghum (0.4 kg/ha) it was 9C.
